Like-named read-outs stand apart in the source and are kept apart here.
Test system: phosphorylation of AKT in HCC70 cells
Assay: Cellular assay: phosphorylation of AKT in HCC70 cells (western blotting)
Type: cell-based
Conditions: Homo sapiens, HCC70, 1 h
Procedure: Cellular activity of PI3Kβ inhibitors was determined by quantifying the phosphorylation of AKT in HCC70 cells. AKT phosphorylated at Ser473 and Thr308 were measured using western blotting and specific primary antibodies from Cell Signaling (CST), Danvers, MA. On day 1, HCC70 cells (ATCC #CRL-2315) were seeded into Falcon 12-well cell Culture Plate (Corning #353043) at 100,000 cells per well, in 1 ml complete culture medium (RPMI-1640, GIBCO #11875093) containing 10% heat inactivated FBS (GIBCO #10438026), 1% Pen-Strep (GIBCO #15140122) and incubated at 37° AC, 5% CO2 overnight. On day 2, compound (500 nM) or DMSO (0.1%, Sigma Aldrich #8418) was added and cells were further incubated for 60 min at 37° AC, 5% CO2 in a total volume of 1 ml fresh medium.
At the end of the cell treatment period, media were removed by aspiration and adherent cells were lysed in 100 uL RIPA buffer (Sigma Aldrich #R0278). Equal volume (15 uL) of proteins was resolved by SDS-PAGE and transferred to PVDF (Millipore #IPFL00010) membrane for immunoblot analysis. Primary antibodies to the following proteins were used for immunoblotting: phosphor-AKT (Ser473) (CST #4060), phosphor-AKT (Thr308) (CST #2965), total AKT (CST #9272). Secondary goat anti-rabbit IgG fluorophore conjugated antibody (Invitrogen #A21109) was used to visualize the indicated proteins on an Odyssey CLx imaging system (Li-Cor). Quantification of band intensities was performed using Odyssey 3.0 software. Inhibition of Akt activity was calculated by band intensities using the formula: […]
Index was evaluated by % of AI. Data represent Index+(20˜60%), ++(60%˜80%), +++(80%˜90%), and ++++>90%.

[1] = HCC70 cells, compound 500 nM, 60 min, inhibition of Akt activity from band intensities, read-out: Index of AI (HCC70) p-AKT Thr 308
[2] = HCC70 cells, compound 500 nM, 60 min, inhibition of Akt activity from band intensities, read-out: Index of AI (HCC70) p-AKT ser 473

Row | Compound | inhibition at 0.5 µM [1] [%] | inhibition at 0.5 µM [2] [%] | inhibition at 0.5 µM (read-out: Index of AI (HCC70) p-AKT Thr 308) [%] | inhibition at 0.5 µM (read-out: Index of AI (HCC70) p-AKT ser 473) [%]
1 | O=C(c1cc(CN2CCc3c(F)cc(F)cc32)c2oc(N3CCOCC3)cc(=O)c2c1)N1CCOCC1 [Compound 41, 8-((4,6-difluoroindolin-1-yl)methyl)-6-(morpholine-4-carbonyl)-2-morpholino-4H-chromen-4-one] | 80 to 90 | 80 to 90 | – | –
2 | CC(Nc1ccc(F)c(F)c1)c1cc(C(=O)N2CC[C@@H](N(C)C)C2)cn2c(=O)cc(N3CCOCC3)nc12 (stereo partly drawn) [Compound 94, 9-(1-((3,4-difluorophenyl)amino)ethyl)-7-((R)-3-(dimethylamino)pyrrolidine-1-carbonyl)-2-morpholino-4H-pyrido[1,2-a]pyrimidin-4-one] | – | – | 60 to 80 | 60 to 80
3 | CC(c1cc(C(=O)N(C)C)cc2c(=O)cc(N3CCOCC3)oc12)N1CCc2c(F)cc(F)cc21 (stereo not drawn) [Compound 37, 8-(1-(4,6-difluoroindolin-1-yl)ethyl)-N,N-dimethyl-2-morpholino-4-oxo-4H-chromene-6-carboxamide] | 80 to 90 | 80 to 90 | – | –
4 | CC(Nc1cc(F)cc(F)c1)c1cc(NC2=NC(C)(C)CO2)cn2c(=O)cc(N3CCOCC3)nc12 (stereo not drawn) [Compound 47, 9-(1-((3,5-difluorophenyl)amino)ethyl)-7-((4,4-dimethyl-4,5-dihydrooxazol-2-yl)amino)-2-morpholino-4H-pyrido[1,2-a]pyrimidin-4-one] | > 90 | > 90 | – | –
5 | CN(C)C(=O)c1cc(CN2CCc3c(Cl)cccc32)c2oc(N3CCOCC3)cc(=O)c2c1 [Compound 71, 8-((4-chloroindolin-1-yl)methyl)-N,N-dimethyl-2-morpholino-4-oxo-4H-chromene-6-carboxamide] | > 90 | > 90 | – | –
6 | C/C(O)=C(\C#N)C(=O)Nc1cc(C(C)Nc2cc(F)cc(F)c2)c2oc(N3CCOCC3)cc(=O)c2c1 (stereo not drawn) [Compound 23, (Z)-2-cyano-N-(8-(1-((3,5-difluorophenyl)amino)ethyl)-2-morpholino-4-oxo-4H-chromen-6-yl)-3-hydroxybut-2-enamide] | 60 to 80 | 60 to 80 | – | –
7 | CN(C)C(=O)c1cc(CN2CCc3c(F)cc(F)cc32)c2nc(N3CCOCC3)cc(=O)n2c1 [Compound 98, 9-((4,6-difluoroindolin-1-yl)methyl)-N,N-dimethyl-2-morpholino-4-oxo-4H-pyrido[1,2-a]pyrimidine-7-carboxamide] | 80 to 90 | 80 to 90 | – | –
8 | CCNC(=O)c1cc(CN2CCc3c(F)cc(F)cc32)c2oc(N3CCOCC3)cc(=O)c2c1 [Compound 80, 8-((4,6-difluoroindolin-1-yl)methyl)-N-ethyl-2-morpholino-4-oxo-4H-chromene-6-carboxamide] | 60 to 80 | 60 to 80 | – | –
9 | O=C(NC1CCOCC1)c1cc(CN2CCc3c(F)cc(F)cc32)c2oc(N3CCOCC3)cc(=O)c2c1 [Compound 83, 8-((4,6-difluoroindolin-1-yl)methyl)-2-morpholino-4-oxo-N-(tetrahydro-2H-pyran-4-yl)-4H-chromene-6-carboxamide] | 60 to 80 | 60 to 80 | – | –
10 | Cc1cc(CN2CCc3c(F)cccc32)c2nc(N3CCOCC3)cc(=O)n2c1 [Compound 52, 9-[(4-fluoroindolin-1-yl)methyl]-7-methyl-2-morpholino-pyrido[1,2-a]pyrimidin-4-one] | 60 to 80 | 60 to 80 | – | –
11 | CC(Nc1cc(F)cc(F)c1)c1cc(N=C(N)N)cc2c(=O)cc(N3CCOCC3)oc12 (stereo not drawn) [Compound 14, 2-(8-(1-((3,5-difluorophenyl)amino)ethyl)-2-morpholino-4-oxo-4H-chromen-6-yl)guanidine] | 20 to 60 | 20 to 60 | – | –
12 | CC(=O)N(C)c1cc(C(C)Nc2cc(F)cc(F)c2)c2oc(N3CCOCC3)cc(=O)c2c1 (stereo not drawn) [Compound 9, N-(8-(1-((3,5-difluorophenyl)amino)ethyl)-2-morpholino-4-oxo-4H-chromen-6-yl)-N-methylacetamide] | 80 to 90 | 80 to 90 | – | –
13 | CNC(=O)c1cc(CN2CCc3c(F)cc(F)cc32)c2oc(N3CCOCC3)cc(=O)c2c1 [Compound 86, 8-((4,6-difluoroindolin-1-yl)methyl)-N-methyl-2-morpholino-4-oxo-4H-chromene-6-carboxamide] | > 90 | > 90 | – | –
14 | CCC(=O)Nc1cc(C(C)Nc2cc(F)cc(F)c2)c2oc(N3CCOCC3)cc(=O)c2c1 (stereo not drawn) [Compound 11, N-(8-(1-((3,5-difluorophenyl)amino)ethyl)-2-morpholino-4-oxo-4H-chromen-6-yl)propionamide] | > 90 | > 90 | – | –
15 | O=C(c1cc(CN2CCc3c(F)cc(F)cc32)c2oc(N3CCOCC3)cc(=O)c2c1)N1CC(O)C1 [Compound 89, 8-((4,6-difluoroindolin-1-yl)methyl)-6-(3-hydroxyazetidine-1-carbonyl)-2-morpholino-4H-chromen-4-one] | – | 20 to 60 | – | –
16 | CC(C)(O)CNC(=O)c1cc(CN2CCc3c(F)cc(F)cc32)c2oc(N3CCOCC3)cc(=O)c2c1 [Compound 84, 8-((4,6-difluoroindolin-1-yl)methyl)-N-(2-hydroxy-2-methylpropyl)-2-morpholino-4-oxo-4H-chromene-6-carboxamide] | 80 to 90 | 80 to 90 | – | –
17 | Cc1cc(CN2c3ccccc3CC2C)c2nc(N3CCOCC3)cc(=O)n2c1 (stereo not drawn) [Compound 57, 7-methyl-9-((2-methylindolin-1-yl)methyl)-2-morpholino-4H-pyrido[1,2-a]pyrimidin-4-one] | 60 to 80 | 60 to 80 | – | –
18 | CN(C)C1CN(C(=O)c2cc(CN3CCc4c(F)cc(F)cc43)c3oc(N4CCOCC4)cc(=O)c3c2)C1 [Compound 46, 8-((4,6-difluoroindolin-1-yl)methyl)-6-(3-(dimethylamino)azetidine-1-carbonyl)-2-morpholino-4H-chromen-4-one] | 80 to 90 | 80 to 90 | – | –
19 | COc1cccc2c1N(Cc1cc(C(=O)N(C)C)cc3c(=O)cc(N4CCOCC4)oc13)CC2 [Compound 72, 8-((7-methoxyindolin-1-yl)methyl)-N,N-dimethyl-2-morpholino-4-oxo-4H-chromene-6-carboxamide] | 20 to 60 | 20 to 60 | – | –
20 | O=c1cc(N2CCOCC2)oc2c(CNc3cc(F)cc(F)c3)cc(N3CCOCC3)cc12 [Compound 1, 8-(((3,5-difluorophenyl)amino)methyl)-2,6-dimorpholino-4H-chromen-4-one] | 60 to 80 | 60 to 80 | – | –
21 | Cc1cc(CN2c3cccc(F)c3CC2C)c2nc(N3CCOCC3)cc(=O)n2c1 (stereo not drawn) [Compound 53, 9-((4-fluoro-2-methylindolin-1-yl)methyl)-7-methyl-2-morpholino-4H-pyrido[1,2-a]pyrimidin-4-one] | 60 to 80 | 60 to 80 | – | –
22 | CN(C)C(=O)c1cc(CN2CCc3c(F)cccc32)c2oc(N3CCOCC3)cc(=O)c2c1 [Compound 68, 8-((4-fluoroindolin-1-yl)methyl)-N,N-dimethyl-2-morpholino-4-oxo-4H-chromene-6-carboxamide] | > 90 | > 90 | – | –
23 | CC(C)CNC(=O)c1cc(CN2CCc3c(F)cc(F)cc32)c2oc(N3CCOCC3)cc(=O)c2c1 [Compound 85, 8-((4,6-difluoroindolin-1-yl)methyl)-N-isobutyl-2-morpholino-4-oxo-4H-chromene-6-carboxamide] | 60 to 80 | 60 to 80 | – | –
24 | CN(C)C(=O)c1cc(CN2CCc3c(F)ccc(Cl)c32)c2oc(N3CCOCC3)cc(=O)c2c1 [Compound 62, 8-((7-chloro-4-fluoroindolin-1-yl)methyl)-N,N-dimethyl-2-morpholino-4-oxo-4H-chromene-6-carboxamide] | 80 to 90 | 80 to 90 | – | –
25 | CN(C)CCN(C)C(=O)c1cc(CN2CCc3c(F)cc(F)cc32)c2oc(N3CCOCC3)cc(=O)c2c1 [Compound 40, 8-((4,6-difluoroindolin-1-yl)methyl)-N-(2-(dimethylamino)ethyl)-N-methyl-2-morpholino-4-oxo-4H-chromene-6-carboxamide] | > 90 | > 90 | – | –
26 | O=c1cc(N2CCOCC2)oc2c(CNc3cc(F)cc(F)c3)cc(C3CC3)cc12 [Compound 6, 6-cyclopropyl-8-(((3,5-difluorophenyl)amino)methyl)-2-morpholino-4H-chromen-4-one] | 60 to 80 | 60 to 80 | – | –
